We go through one compound from patent EP0118838A2, “New cephem compounds processes for preparation thereof and pharmaceutical compositions containing them” (FUJISAWA PHARMACEUTICAL CO., LTD., priority 1983, dated 1984).

One assay relates to Proteus mirabilis 18. Kind of assay: In vitro antibacterial activity, two-fold agar-plate dilution method. The class given is cell-based. As to conditions: HI-agar, incubation at 37°C for 20 hours, inoculum 10^8 viable cells per ml. Here is the method:
(§1) In vitro antibacterial activity was determined by the two-fold agar-plate dilution method as described below. One loopful of an overnight culture of each test strain in Trypticase-soy broth (10^8 viable cells per ml.) was streaked on heart infusion agar (HI-agar) containing graded concentrations of test compound , and minimal inhibitory concentration (MIC) was expressed in terms of µg/ml after incubation at 37°C for 20 hours.

In another assay the test system is Proteus vulgaris 2. Described as above. The assay is classed as cell-based. As to conditions: HI-agar, incubation at 37°C for 20 hours, inoculum 10^8 viable cells per ml. Here is the method:
as §1

A word on the MIC: it is the least concentration at which growth counts as inhibited. Low readings indicate greater potency, high ones weaker potency.

Where only a bound is given, the exact number is not on record here.

For `Nc1nc(/C(=N/OCC(=O)O)C(=O)NC2C(=O)N3C(C(=O)O)=C(CSc4snc(O)c4C(=O)O)CSC23)ns1` (stereo not drawn) [Test Compound, Sodium 7-[2-(5-amino-1,2,4-thiadiazol-3-yl)-2-carboxymethoxyiminoacetamido]-3-[(4-carboxy-3-hydroxyisothiazol-5-yl)thiomethyl]-3-cephem-4-carboxylate (syn isomer)], the MIC with Proteus mirabilis 18 and with Proteus vulgaris 2 was under 0.025 µg/mL each time.
